Molecular target: T1, recombinant human mPGES-1 (Homo sapiens, UniProt O14684)
T1 construct: made in house; host or cells: Rosetta E. coli (membrane/microsome fraction)
T1 sequence (O14684 1-152): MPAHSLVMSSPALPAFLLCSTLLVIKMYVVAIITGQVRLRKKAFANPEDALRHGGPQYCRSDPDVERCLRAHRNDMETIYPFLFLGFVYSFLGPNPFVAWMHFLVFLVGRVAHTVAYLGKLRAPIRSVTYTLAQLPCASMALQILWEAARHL
Assay: mPGES-1 HTRF assay (inhibition of PGE2 formation from PGH2)
Type: biochemical
Conditions: HTRF assay
Method in brief: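 Microsomes of E. coli expressing human mPGES-1, in 0.1 M KPi pH 7.4 with 2.5 mM GSH, preincubated 25 min at room temperature with inhibitor, then given PGH2 for 1 min before FeCl2 acidic stop. PGE2 quantified by HTRF (665/620 nm ratio) against synthetic PGE2 standard curve; percent inhibition versus controls.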

IC50	Compound
> 100 nM	COc1ccc(CNC(=O)C(C)(C)C)cc1Nc1nc2cc(C(=O)N[C@H]3CC[C@H](C(F)(F)F)CC3)c(Cl)cc2[nH]1 [Example 99, N-(trans-4-Trifluoromethyl-cyclohex-1-yl)-2-(2-methoxy-5-{[(tert-butylcarbonyl)-amino]-methyl}-phenylamino)-6-chloro-1H-benzimidazole-5-carboxylic acid amide]
5 nM	CC(C)(C)C(=O)NCc1ccc(Cl)c(Nc2nc3cc(C(=O)Nc4ccc(Br)cc4)c(OCC(F)F)cc3n2CC(F)F)c1 [Example 100, N-(4-Bromo-phenyl)-2-(2-chloro-5-{[(tert-butylcarbonyl)-amino]-methyl}-phenylamino)-6-(2,2-difluoro-ethoxy)-1-(2,2-difluoroethyl)-1H-benzimidazole-5-carboxylic acid amide]

Reference: patent publication US8921405B2, “Compounds” (Orexo AB, priority 2009, dated 2014)
